This passage reports EC50, IC50 and outcome results from PubChem BioAssay AID179 (DTP/NCI, 2004).

The test system of the assay is CEM cells HIV-1 protection, formazan growth assay. The experiment in a line: NCI AIDS Antiviral Assay. Particulars: for IC50: measured here: growth of uninfected CEM cells. In outline:
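Protection of CEM cells against HIV-1 was scored from cell growth (soluble formazan) across five concentrations, with parallel uninfected cells. Lack of protection may reflect toxicity.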

The structures appear in SMILES notation. The source made the active and inactive calls.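 The calls were made as follows: active = compounds giving half or more protection of infected cells from virus-caused growth loss, again on retest; inactive = the rest.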

As to `N#C/C(=C\c1ccccc1)c1cccc(F)c1`, the EC50 was more than 200 µM and the IC50 was found to be 46.8 µM.

As to `CC(OC(C)(C)C)[C@H](NC(=O)OC(C)(C)C)C(=O)O` (stereo not given in full), the EC50 is more than 275 µM and the IC50 was more than 275 µM.

As to `COC[C@H](Cc1ccccc1)N=Cc1ccccc1`, the EC50 was more than 200 µM and the IC50 was more than 200 µM.

On to `CCCCCCCCCC(=O)CC(=O)c1c(O)cccc1O`, for which the EC50 was more than 23.4 µM and the IC50 is more than 23.4 µM.

Take `Cc1cn(C2CC(O[Si](C)(C)C(C)(C)C)C(/C=N\O)O2)c(=O)[nH]c1=O` (stereo not given): the EC50 is more than 200 µM and the IC50 was more than 200 µM.

In the case of `O=c1oc2ccc([N+](=O)[O-])cc2cc1Br`, the EC50 is more than 145 µM and the IC50 is more than 145 µM.

`COc1cc(C(C#N)S(=O)(=O)O)ccc1O` (stereo not given): the EC50 is more than 200 µM and the IC50 was more than 200 µM.

Turning to `NS(=O)(=O)c1nn2c(Br)c(-c3ccccc3)nc2s1`, the EC50 was more than 200 µM and the IC50 turned out to be 1.78 µM.

`COC(=O)C(C(=O)C(=O)Nc1ccc(C(F)(F)F)cc1[N+](=O)[O-])c1csc(-n2nc(-c3ccccc3)cc2-c2ccccc2)n1` (stereo not given): the EC50 is more than 53.7 µM and the IC50 came out at 39.8 µM.

`CCCCCCCCP(=O)(O)OP(=O)(O)OCC1OC(n2ccc(N)nc2=O)C(O)C1O` (stereo not given): the EC50 was more than 200 µM and the IC50 is more than 200 µM.

With `O=C1NC2(CCN(CCc3ccccc3)CC2)Oc2ccccc21`, the EC50 is more than 200 µM and the half-maximal inhibitory concentration (IC50) is 191 µM.

Consider `CCOC(=O)C1=C(OC(OCC)C([Se]c2ccccc2)C(C)C)CCC1` (stereo not given), for which the EC50 was more than 23.4 µM and the IC50 is more than 23.4 µM.

Consider `CCOC(=O)N1N=C(c2ccccc2)OC2(N3CCCC3)CCC(C(C)(C)C)CC12` (stereo not given), for which the EC50 is 44.7 µM and the IC50 was found to be 105 µM.

`CCCCCCCCCCCC(O)=C1C(=O)CCCC1=O`: the EC50 was more than 17.8 µM and the IC50 was more than 17.8 µM.

`O/N=C1/CCC/C1=C\c1ccccc1`: the result was inactive.

With `CC1(C)CN2Cc3cccc(n3)CN(CC(C)(C)[N-]C(=O)C(C)(OCc3ccccc3)C2)CC(C)(OCc2ccccc2)C(=O)[N-]1.[Cu+2]` (stereo not given), the EC50 is more than 200 µM and the IC50 was determined as 117 µM.

Regarding `CC1=C(C#N)C2(N)OC1(C)C1C(=O)C=CC(=O)C12` (stereo not given), the EC50 is more than 200 µM and the IC50 came out at 23.4 µM.

Turning to `COC(=O)c1ccccc1CC1Cc2cccc(C)c2C1=O` (stereo not given), the EC50 was more than 200 µM and the IC50 worked out at 53.7 µM.

As for `CN1CCN(C(=S)N(C(=O)c2ccc(Cl)cc2)c2ccccc2)CC1`, the EC50 was more than 13.8 µM and the IC50 was more than 13.8 µM.

As to `CC(=O)Nc1nc(C#N)[nH]c1C#N`, the EC50 is more than 200 µM and the half-inhibitory concentration (IC50) is more than 200 µM.

On to `O=c1/c(=C/c2ccccc2[N+](=O)[O-])sc2nnc(-c3cccnc3)n12`, for which the EC50 was more than 186 µM and the IC50 is more than 186 µM.

Take `O=C(Nn1cc(F)c(=O)[nH]c1=O)C12CC3CC(CC(C3)C1)C2`: the EC50 was more than 200 µM and the IC50 amounted to 8.91 µM.

For the compound `CCCCCCCCCCCCCCCc1ncc(C)[nH]1`, the EC50 was more than 24.5 µM and the IC50 is more than 24.5 µM.

Regarding `COC(=O)[C@H]1C(=CBr)[C@@H]1C(=O)OC.[C-]#[O+].[C-]#[O+].[C-]#[O+].[C-]#[O+].[Fe]`, the EC50 was more than 200 µM and the IC50 was more than 200 µM.

For `[Cl][Tb]([Cl])[Cl]`, the result was inactive.

`S=c1nn[nH]c2ccccc12`: the EC50 was more than 219 µM and the IC50 is more than 219 µM.

Consider `COC(=O)NC1=Nc2ccccc2C(=O)NN1`, for which the EC50 was more than 200 µM and the IC50 was more than 200 µM.

Regarding `Cn1cc(NC(=O)Nc2cc(C(=O)Nc3cc(C(=O)Nc4ccc5cc(S(=O)(=O)O)cc(S(=O)(=O)O)c5c4)n(C)c3)n(C)c2)cc1C(=O)Nc1cc(C(=O)Nc2ccc3cc(S(=O)(=O)O)cc(S(=O)(=O)O)c3c2)n(C)c1`, the EC50 is 33.9 µM and the IC50 is more than 100 µM.

Turning to `CC[C@@H]1CC2CN3CCc4c([nH]c5cc(OC)ccc45)C(C(=O)OC)(C2)C13` (stereo not given in full), the outcome was inactive.

A word on the EC50: it is the concentration at which the effect is half-maximal. The IC50 is the concentration that inhibits the measured activity by half. A low value points to higher potency.
